Reference: patent US20040028609A1, “Two-dimensionally quantified image method for distinguishing and quantifying over-growing tissue or the like” (priority 2000, published 2004)
Read-outs that look alike come from different tables or passages of the source. One block for each compound: values may come before it.

How the values were obtained:
[1] = tested on: excised jejunum, basal layer of the intestinal tract mucosa; assay: [2-^14C] thymidine incorporation in excised, cultured jejunum (in vitro system); format: cell-based, Wistar rat; conditions: 5 μCi injected into excised jejunum, cultured 10 minutes at 37° C.
Experimental: Next, the jejunum of a healthy Wistar male rat at seven weeks of age was used. The part of the abdomen was opened under ethyl ether anesthesia, and the jejunum of about 2-4 cm in length was excised. […] Then, the specimen was immediately frozen in liquid nitrogen and sectioned using a microtome to obtain frozen sections. Semi-microautoradiographs were prepared from these sections.

[2] = BALB/c, mouse, in vivo
Experimental: The back of BALB/c nude mice was inoculated with a 10^7 Hu09 cells (human osteosarcoma) grown in culture. 3 weeks later, animals with granulation tissue with a collagen layer were submitted for the experiment. […] 50 μm thick whole body sections cut longitudinally were prepared using a Leica Macrocut. The sections were stored in a sealed container and lyophilized. The dried sections in contact with a Fuji imaging plate were exposed in a dark box, and the IP was then processed with the Fuji BAS2000 analyzer to generate a digital image (FIG. 1).
The specimen was then placed in contact with IP, and 16 hours later the data was converted into a computer image for analysis.

[3] = Fate of intravenously administered [2-^14C] thymidine in rats; format: in vivo; conditions: intravenous
Experimental: Extensive studies by the present inventors led to the discovery that when “thymidine” is intravenously administered to rats, the thymidine administered is utilized only in the S phase of the cell cycle, and more precisely, within 3 minutes after the administration of the thymidine. This observation is based on the findings obtained using a “thymidine” with the “2” carbon position within its structure labeled with ^14C and tracking the fate of the administered thymidine. It was discovered that thymidine not incorporated during the cell division is rapidly metabolized in the liver, leucocytes, and the like and mostly excreted out of the body as carbon dioxide gas. Based on these findings, the present inventors discovered that a thymidine with “2” carbon position labeled with ^14C is an extremely important marker for specifying the frequency of dividing cells in vivo and for localizing its site(s) within the body. It was also discovered that a (1,3-N) thymidine, obtained by attaching a fluorescent compound to the nitrogen atoms at 1,3-positions of the thymidine, can also be used as the labeled thymidine.

[4] = tested on: jejunum, basal layer of the intestinal mucosa; assay: [2-^14C] thymidine injected into exposed jejunum, semi-microautoradiograph; format: in vivo, Wistar rat; conditions: 5 μCi injected into exposed jejunum, 5 minutes
Experimental: The specimen used was the jejunum from a healthy 7-week old Wistar rat, male. Under ethyl ether anesthesia, the abdomen was opened to expose the jejunum, which was marked with methylene blue. […] Frozen sections were prepared with a microtome, and a semi-microautoradiographs were obtained.

bone marrow (B) = conditions: for effect of ^90Y radiation on [2-^14C] thymidine incorporation (suppression of mitosis), B: bone marrow
Experimental: (§1) ^90YCl at the three levels, 0.5 μCi (18.5 kBq), 2 μCi (74 kBq) or 10 μCi (370 kBq), was injected intravenously into the tail of male BALB/c mice in groups of 6 mice per group (a total of 18 mice). […] The animals were sacrificed one hour later under ether anesthesia, and the macroautoradiographs were prepared as described in Example 1. […] FIG. 12 is a microautoradiograph of the bone marrow, showing the bone marrow from a mouse sacrificed 1 hour after [2-^14C] was administered, which was 48 hours after the ^90Y administration.
(§2) On the sections were placed five sheets of 10 μm thick aluminum foil, and this was brought into contact with IP to generate only the ^90Y image. […] If the image of the two radiation nuclides is to be obtained simultaneously, one can place an industrial X-ray film in contact with said section, followed by five sheets of aluminum foil, and then the IP; these are then stored in a dark box. After about 7 days, the X-ray film is taken out and photographically processed by the usual method to produce the image, while the IP is processed by Fuji BAS2000 for computer processing of the images. This method provides ^14C image on the industrial X-ray film. This method also gives a ^90Y image on the IP.

[5] = tested on: digestive tract mucosa (m)
Experimental: as §1, §2

tumor (T) = assay: Effect of ^90Y radiation on mitosis, [2-^14C] thymidine incorporation as marker of DNA replication (macroautoradiography): tumor; format: in vivo, BALB/c mice; further: key: −: no effect; ±: Slight inhibition; +: Decrease in function; ++: Definite decrease in function; +++: No incorporation of ^14C marker in DNA replication
[6] = Experimental: After administration of the aforementioned ^90Y into the mouse tail vein the systemic distribution was studied by the following experiments. The animals used were those obtained from the source as used for the BALB/c (body weight 25 g) described in Examples 1 and 2 above. After administration of an aqueous 0.5 μCi (18.5 kBq) ^90YCl citrate solution per male mouse in the tail vein, analysis was conducted over time at 5 time points: at 10 minutes, 1, 6, 24, and 48 hours. The animals were sacrificed under an ether anesthesia, and the whole body autoradiographs were prepared using with the same procedure as that used in Example 1 and Example 2 (FIGS. 7, 8, 9, 10, 11).
[7] = 0.5 μCi ^90Y i.v., 1 hr after ^90Y
[8] = 0.5 μCi ^90Y i.v., 6 hr after ^90Y
[9] = 0.5 μCi ^90Y i.v., 24 hr after ^90Y
[10] = 0.5 μCi ^90Y i.v., 48 hr after ^90Y
[11] = 0.5 μCi ^90Y i.v., 72 hr after ^90Y
[12] = 0.5 μCi ^90Y i.v., 168 hr after ^90Y
[13] = 2 μCi ^90Y i.v., 1 hr after ^90Y
[14] = 2 μCi ^90Y i.v., 6 hr after ^90Y
[15] = 2 μCi ^90Y i.v., 24 hr after ^90Y
[16] = 2 μCi ^90Y i.v., 48 hr after ^90Y
[17] = 2 μCi ^90Y i.v., 72 hr after ^90Y
[18] = 2 μCi ^90Y i.v., 168 hr after ^90Y
[19] = 10 μCi ^90Y i.v., 1 hr after ^90Y
[20] = 10 μCi ^90Y i.v., 6 hr after ^90Y
[21] = 10 μCi ^90Y i.v., 24 hr after ^90Y
[22] = 10 μCi ^90Y i.v., 48 hr after ^90Y
[23] = 10 μCi ^90Y i.v., 72 hr after ^90Y
[24] = 10 μCi ^90Y i.v., 168 hr after ^90Y

time to incorporation into DNA after injection [2]: less than 3 minutes | time by which the ^14C component is completely excreted out of other areas, except the bone and bone marrow ([2]; iv): ≤ 1 h | time after administration within which thymidine is utilized (S phase) [3]: ≤ 3 min
SMILES: Cc1cn([C@H]2C[C@H](O)[C@@H](CO)O2)c(=O)[nH]c1=O [[2-^14C] thymidine]
incorporation in the basal layer of the intestinal tract mucosa (semi-microautoradiograph) [1]: substantially darkened images | incorporation in the basal layer of the intestinal mucosa (semi-microautoradiograph) [4]: darkened images were clearly recorded

SMILES: [Cl][90Y]([Cl])[Cl] [^90Y, ^90YCl3]
effect of ^90Y radiation on [2-^14C] thymidine incorporation (suppression of mitosis), B (bone marrow (B); [7]): − | effect of ^90Y radiation on [2-^14C] thymidine incorporation (suppression of mitosis), B (bone marrow (B); [8]): − | effect of ^90Y radiation on [2-^14C] thymidine incorporation (suppression of mitosis), B (bone marrow (B); [9]): − | effect of ^90Y radiation on [2-^14C] thymidine incorporation (suppression of mitosis), B (bone marrow (B); [10]): + | effect of ^90Y radiation on [2-^14C] thymidine incorporation (suppression of mitosis), B (bone marrow (B); [11]): + | effect of ^90Y radiation on [2-^14C] thymidine incorporation (suppression of mitosis), B (bone marrow (B); [12]): ± | effect of ^90Y radiation on [2-^14C] thymidine incorporation (suppression of mitosis), B (bone marrow (B); [13]): − | effect of ^90Y radiation on [2-^14C] thymidine incorporation (suppression of mitosis), B (bone marrow (B); [14]): + | effect of ^90Y radiation on [2-^14C] thymidine incorporation (suppression of mitosis), B (bone marrow (B); [15]): ++ | effect of ^90Y radiation on [2-^14C] thymidine incorporation (suppression of mitosis), B (bone marrow (B); [16]): ++ | effect of ^90Y radiation on [2-^14C] thymidine incorporation (suppression of mitosis), B (bone marrow (B); [17]): ++ | effect of ^90Y radiation on [2-^14C] thymidine incorporation (suppression of mitosis), B (bone marrow (B); [18]): + | effect of ^90Y radiation on [2-^14C] thymidine incorporation (suppression of mitosis), B (bone marrow (B); [19]): ± | effect of ^90Y radiation on [2-^14C] thymidine incorporation (suppression of mitosis), B (bone marrow (B); [20]): ++ | effect of ^90Y radiation on [2-^14C] thymidine incorporation (suppression of mitosis), B (bone marrow (B); [21]): +++ | effect of ^90Y radiation on [2-^14C] thymidine incorporation (suppression of mitosis), B (bone marrow (B); [22]): +++ | effect of ^90Y radiation on [2-^14C] thymidine incorporation (suppression of mitosis), B (bone marrow (B); [23]): +++ | effect of ^90Y radiation on [2-^14C] thymidine incorporation (suppression of mitosis), B (bone marrow (B); [24]): +++ | level that showed cytotoxic effects near the sites of ^90Y deposition (bone marrow (B); bone / bone marrow): about 5 μCi/25 g | activity of the lymphocytes in the bone marrow to degrade [2-^14C] thymidine (bone marrow (B); first group, 0.5 μCi administration): only a slight decrease | effect of ^90Y radiation on [2-^14C] thymidine incorporation (suppression of mitosis), m [5, 7]: − | effect of ^90Y radiation on [2-^14C] thymidine incorporation (suppression of mitosis), m [5, 8]: − | effect of ^90Y radiation on [2-^14C] thymidine incorporation (suppression of mitosis), m [5, 9]: − | effect of ^90Y radiation on [2-^14C] thymidine incorporation (suppression of mitosis), m [5, 10]: − | effect of ^90Y radiation on [2-^14C] thymidine incorporation (suppression of mitosis), m [5, 11]: − | effect of ^90Y radiation on [2-^14C] thymidine incorporation (suppression of mitosis), m [5, 12]: − | effect of ^90Y radiation on [2-^14C] thymidine incorporation (suppression of mitosis), m [5, 13]: − | effect of ^90Y radiation on [2-^14C] thymidine incorporation (suppression of mitosis), m [5, 14]: − | effect of ^90Y radiation on [2-^14C] thymidine incorporation (suppression of mitosis), m [5, 15]: − | effect of ^90Y radiation on [2-^14C] thymidine incorporation (suppression of mitosis), m [5, 16]: − | effect of ^90Y radiation on [2-^14C] thymidine incorporation (suppression of mitosis), m [5, 17]: − | effect of ^90Y radiation on [2-^14C] thymidine incorporation (suppression of mitosis), m [5, 18]: − | effect of ^90Y radiation on [2-^14C] thymidine incorporation (suppression of mitosis), m [5, 19]: − | effect of ^90Y radiation on [2-^14C] thymidine incorporation (suppression of mitosis), m [5, 20]: − | effect of ^90Y radiation on [2-^14C] thymidine incorporation (suppression of mitosis), m [5, 21]: − | effect of ^90Y radiation on [2-^14C] thymidine incorporation (suppression of mitosis), m [5, 22]: − | effect of ^90Y radiation on [2-^14C] thymidine incorporation (suppression of mitosis), m [5, 23]: − | effect of ^90Y radiation on [2-^14C] thymidine incorporation (suppression of mitosis), m [5, 24]: − | effect of ^90Y radiation on [2-^14C] thymidine incorporation (suppression of mitosis), T (tumor (T); [7]): − | effect of ^90Y radiation on [2-^14C] thymidine incorporation (suppression of mitosis), T (tumor (T); [8]): − | effect of ^90Y radiation on [2-^14C] thymidine incorporation (suppression of mitosis), T (tumor (T); [9]): − | effect of ^90Y radiation on [2-^14C] thymidine incorporation (suppression of mitosis), T (tumor (T); [10]): + | effect of ^90Y radiation on [2-^14C] thymidine incorporation (suppression of mitosis), T (tumor (T); [11]): + | effect of ^90Y radiation on [2-^14C] thymidine incorporation (suppression of mitosis), T (tumor (T); [12]): ± | effect of ^90Y radiation on [2-^14C] thymidine incorporation (suppression of mitosis), T (tumor (T); [13]): − | effect of ^90Y radiation on [2-^14C] thymidine incorporation (suppression of mitosis), T (tumor (T); [14]): + | effect of ^90Y radiation on [2-^14C] thymidine incorporation (suppression of mitosis), T (tumor (T); [15]): ++ | effect of ^90Y radiation on [2-^14C] thymidine incorporation (suppression of mitosis), T (tumor (T); [16]): ++ | effect of ^90Y radiation on [2-^14C] thymidine incorporation (suppression of mitosis), T (tumor (T); [17]): ++ | effect of ^90Y radiation on [2-^14C] thymidine incorporation (suppression of mitosis), T (tumor (T); [18]): + | effect of ^90Y radiation on [2-^14C] thymidine incorporation (suppression of mitosis), T (tumor (T); [19]): ± | effect of ^90Y radiation on [2-^14C] thymidine incorporation (suppression of mitosis), T (tumor (T); [20]): ++ | effect of ^90Y radiation on [2-^14C] thymidine incorporation (suppression of mitosis), T (tumor (T); [21]): +++ | effect of ^90Y radiation on [2-^14C] thymidine incorporation (suppression of mitosis), T (tumor (T); [22]): +++ | effect of ^90Y radiation on [2-^14C] thymidine incorporation (suppression of mitosis), T (tumor (T); [23]): +++ | effect of ^90Y radiation on [2-^14C] thymidine incorporation (suppression of mitosis), T (tumor (T); [24]): +++ | accumulation in the skeletal bones, share of the total dose ([6]; 0.5 μCi ^90YCl citrate solution, tail vein, IP images at 10 minutes to 48 hours): ≥ 70% | ^90Y remaining in the liver, spleen, and kidney ([6]; 0.5 μCi, tail vein, 24 hours after administration): only a slight residue | localization in skin, digestive tract epithelium, and vascular endothelial cells ([6]; 0.5 μCi, tail vein, image analysis): did not localize | ^90Y image at the site of the osteosarcoma HU09 ([6]; whole body autoradiograph, compared with bones): blackened image completely equivalent to the extent seen in the bones
